# Laboratory results reported in patent US9334264B2, “NAMPT inhibitors” (AbbVie Inc., priority 2012, dated 2016).
# Legend:
# NAMPT = NAMPT (Homo sapiens, UniProt P43490); experiment: Time-Resolved Fluorescence Resonance Energy Transfer (TR-FRET) Binding Assay of NAMPT with PRPP; conditions: 200 μM PRPP and 2.5 mM ATP; 2 nM NAMPT, 2 nM probe, equilibrated 16 hours
# How it was run: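 Compounds were equilibrated for 16 hours before TR-FRET readout, with substrates present (200 μM PRPP, 2.5 mM ATP) to permit enzymatic modification. Final mix: 2 nM His-tagged NAMPT, 2 nM probe, 1 nM Tb-anti-His antibody, 2% DMSO.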
# [1] = molecular target: NAMPT (human, recombinant, C-terminally His-tagged) (Homo sapiens, UniProt P43490); experiment: Time-Resolved Fluorescence Resonance Energy Transfer (TR-FRET) Binding Assay of NAMPT; conditions: absence of substrates; 6.8 nM NAMPT, 200 nM probe, equilibrated 3 hours
# Chain of NAMPT (human, recombinant, C-terminally His-tagged) (P43490 whole entry): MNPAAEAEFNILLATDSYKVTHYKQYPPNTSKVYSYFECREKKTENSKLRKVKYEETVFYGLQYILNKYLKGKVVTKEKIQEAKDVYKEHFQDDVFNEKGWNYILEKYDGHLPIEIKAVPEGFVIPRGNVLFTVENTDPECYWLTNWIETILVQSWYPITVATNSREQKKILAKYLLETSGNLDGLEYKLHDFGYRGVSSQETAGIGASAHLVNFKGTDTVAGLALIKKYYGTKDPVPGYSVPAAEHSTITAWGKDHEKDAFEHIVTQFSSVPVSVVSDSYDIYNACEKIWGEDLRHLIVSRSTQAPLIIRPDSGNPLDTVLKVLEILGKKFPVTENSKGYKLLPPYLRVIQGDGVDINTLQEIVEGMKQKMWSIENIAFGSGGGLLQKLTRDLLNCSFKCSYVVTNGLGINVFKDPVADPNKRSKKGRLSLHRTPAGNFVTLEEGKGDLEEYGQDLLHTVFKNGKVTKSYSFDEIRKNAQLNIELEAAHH
# How it was run: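 Compounds (typically 11 half-log dilutions, 2% DMSO final) equilibrated 3 h at room temperature with 6.8 nM human C-His NAMPT, 1 nM Tb-anti-His antibody and 200 nM fluorescent competitive probe in pH 7.5 HEPES buffer. IC50 derived by logistic fit of normalized TR-FRET ratio (520/495 nm).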
# Chain of NAMPT (P43490 whole entry): as above
SMILES,IC50 (NAMPT),IC50 [1]
"O=C(NCCCn1ccnc1)c1cnc(N(Cc2ccc(F)cc2)C(=O)N2CCC3(C2)OCCO3)s1 [Example 67, N-(4-fluorobenzyl)-N-(5-{[3-(1H-imidazol-1-yl)propyl]carbamoyl}-1,3-thiazol-2-yl)-1,4-dioxa-7-azaspiro[4.4]nonane-7-carboxamide]",3.53 nM,> 10000 nM
"COCCC(=O)N(CCC(=O)N1CCCC1)c1ncc(C(=O)NCCCn2ccnc2)s1 [Example 195, N-[3-(1H-imidazol-1-yl)propyl]-2-{(3-methoxypropanoyl)[3-oxo-3-(pyrrolidin-1-yl)propyl]amino}-1,3-thiazole-5-carboxamide]",0.338 nM,> 10000 nM
"COCCN(C(=O)CCc1ccc(F)cc1)c1ncc(C(=O)NCCCn2ccnc2)s1 [Example 182, 2-{[3-(4-fluorophenyl)propanoyl](2-methoxyethyl)amino}-N-[3-(1H-imidazol-1-yl)propyl]-1,3-thiazole-5-carboxamide]",0.264 nM,2590 nM
"CC(C)CCN(C(=O)CC1CCOCC1)c1ncc(C(=O)NCCCn2ccnc2)s1 [Example 154, N-[3-(1H-imidazol-1-yl)propyl]-2-[(3-methylbutyl)(tetrahydro-2H-pyran-4-ylacetyl)amino]-1,3-thiazole-5-carboxamide]",0.518 nM,230 nM
"CN(C)C(=O)CCNC(=O)N(Cc1ccc(C#N)cc1)c1ncc(C(=O)NCCCn2ccnc2)s1 [Example 142, 2-[(4-cyanobenzyl){[3-(dimethylamino)-3-oxopropyl]carbamoyl}amino]-N-[3-(1H-imidazol-1-yl)propyl]-1,3-thiazole-5-carboxamide]",16.9 nM,6040 nM
"CCOC(=O)CC(C)NC(=O)N(Cc1ccc(C#N)cc1)c1ncc(C(=O)NCCCn2ccnc2)s1 (stereo not shown) [Example 161, ethyl 3-{[(4-cyanobenzyl)(5-{[3-(1H-imidazol-1-yl)propyl]carbamoyl}-1,3-thiazol-2-yl)carbamoyl]amino}butanoate]",215 nM,> 10000 nM
"CCOC(=O)CCCNC(=O)N(Cc1ccc(C#N)cc1)c1ncc(C(=O)NCCCn2ccnc2)s1 [Example 160, ethyl 4-{[(4-cyanobenzyl)(5-{[3-(1H-imidazol-1-yl)propyl]carbamoyl}-1,3-thiazol-2-yl)carbamoyl]amino}butanoate]",195 nM,> 10000 nM
"COCCN(C(=O)CCc1cccnc1)c1ncc(C(=O)NCCCn2ccnc2)s1 [Example 183, N-[3-(1H-imidazol-1-yl)propyl]-2-{(2-methoxyethyl)[3-(pyridin-3-yl)propanoyl]amino}-1,3-thiazole-5-carboxamide]",0.281 nM,2940 nM
"COCCC(=O)N(CCc1ccc2c(c1)OCO2)c1ncc(C(=O)NCCCn2ccnc2)s1 [Example 102, 2-{[2-(1,3-benzodioxol-5-yl)ethyl](3-methoxypropanoyl)amino}-N-[3-(1H-imidazol-1-yl)propyl]-1,3-thiazole-5-carboxamide acetate (1:1)]",2.16 nM,306 nM
"CCC(CNC(=O)N(Cc1ccc(F)cc1)c1ncc(C(=O)NCCCn2ccnc2)s1)OC (stereo not shown) [Example 90, 2-{(4-fluorobenzyl)[(2-methoxybutyl)carbamoyl]amino}-N-[3-(1H-imidazol-1-yl)propyl]-1,3-thiazole-5-carboxamide]",2.25 nM,> 10000 nM
"COCCC(=O)N(CCC(C)C)c1ncc(C(=O)NCCCn2ccnc2)s1 [Example 150, N-[3-(1H-imidazol-1-yl)propyl]-2-[(3-methoxypropanoyl)(3-methylbutyl)amino]-1,3-thiazole-5-carboxamide]",0.21 nM,252 nM
"N#Cc1ccc(CN(C(=O)NCCC(=O)O)c2ncc(C(=O)NCCCn3ccnc3)s2)cc1 [Example 171, N-[(4-cyanobenzyl)(5-{[3-(1H-imidazol-1-yl)propyl]carbamoyl}-1,3-thiazol-2-yl)carbamoyl]-beta-alanine]",32.1 nM,8790 nM
"COCCC(=O)N(CCCN1CCCC1=O)c1ncc(C(=O)NCCCn2ccnc2)s1 [Example 197, N-[3-(1H-imidazol-1-yl)propyl]-2-{(3-methoxypropanoyl)[3-(2-oxopyrrolidin-1-yl)propyl]amino}-1,3-thiazole-5-carboxamide]",0.251 nM,9210 nM
"CCC(COC)NC(=O)N(Cc1ccc(F)cc1)c1ncc(C(=O)NCCCn2ccnc2)s1 (stereo not shown) [Example 84, 2-{(4-fluorobenzyl)[(1-methoxybutan-2-yl)carbamoyl]amino}-N-[3-(1H-imidazol-1-yl)propyl]-1,3-thiazole-5-carboxamide]",1.72 nM,3200 nM
"CCOCCN1CCN(CC(=O)N(Cc2ccc(F)cc2)c2ncc(C(=O)NCCCn3ccnc3)s2)CC1 [Example 35, 2-[{[4-(2-ethoxyethyl)piperazin-1-yl]acetyl}(4-fluorobenzyl)amino]-N-[3-(1H-imidazol-1-yl)propyl]-1,3-thiazole-5-carboxamide]",3.18 nM,> 10000 nM
"CN(C)C1CCN(CC(=O)N(Cc2ccc(F)cc2)c2ncc(C(=O)NCCCn3ccnc3)s2)C1 (stereo not shown) [Example 39, 2-[{[3-(dimethylamino)pyrrolidin-1-yl]acetyl}(4-fluorobenzyl)amino]-N-[3-(1H-imidazol-1-yl)propyl]-1,3-thiazole-5-carboxamide]",0.938 nM,2390 nM
"COCCC(=O)N(CC1COCCO1)c1ncc(C(=O)NCCCn2ccnc2)s1 (stereo not shown) [Example 181, 2-[(1,4-dioxan-2-ylmethyl)(3-methoxypropanoyl)amino]-N-[3-(1H-imidazol-1-yl)propyl]-1,3-thiazole-5-carboxamide]",0.556 nM,> 10000 nM
"N#Cc1ccc(CN(C(=O)CC2CCOCC2)c2ncc(C(=O)NCCCn3ccnc3)s2)cc1 [Example 51, 2-[(4-cyanobenzyl)(tetrahydro-2H-pyran-4-ylacetyl)amino]-N-[3-(1H-imidazol-1-yl)propyl]-1,3-thiazole-5-carboxamide]",4.94 nM,> 10000 nM
"COCCCN1CCN(CC(=O)N(Cc2ccc(F)cc2)c2ncc(C(=O)NCCCn3ccnc3)s2)CC1 [Example 38, 2-[(4-fluorobenzyl){[4-(3-methoxypropyl)piperazin-1-yl]acetyl}amino]-N-[3-(1H-imidazol-1-yl)propyl]-1,3-thiazole-5-carboxamide]",1.35 nM,2690 nM
"CCN(CC)CCCN(C(=O)CCOC)c1ncc(C(=O)NCCCn2ccnc2)s1 [Example 190, 2-{[3-(diethylamino)propyl](3-methoxypropanoyl)amino}-N-[3-(1H-imidazol-1-yl)propyl]-1,3-thiazole-5-carboxamide]",0.606 nM,2610 nM
"CC(C)N1CCN(CCN(Cc2ccc(F)cc2)c2ncc(C(=O)NCCCn3ccnc3)s2)CC1 [Example 10, 2-[(4-fluorobenzyl){2-[4-(propan-2-yl)piperazin-1-yl]ethyl}amino]-N-[3-(1H-imidazol-1-yl)propyl]-1,3-thiazole-5-carboxamide]",19.6 nM,281 nM
"COCCC(=O)N(CCNC(=O)C(C)C)c1ncc(C(=O)NCCCn2ccnc2)s1 [Example 199, N-[3-(1H-imidazol-1-yl)propyl]-2-[(3-methoxypropanoyl){2-[(2-methylpropanoyl)amino]ethyl}amino]-1,3-thiazole-5-carboxamide]",0.493 nM,> 10000 nM
"COCCC(=O)N(CC1CCCCO1)c1ncc(C(=O)NCCCn2ccnc2)s1 (stereo not shown) [Example 177, N-[3-(1H-imidazol-1-yl)propyl]-2-[(3-methoxypropanoyl)(tetrahydro-2H-pyran-2-ylmethyl)amino]-1,3-thiazole-5-carboxamide]",0.653 nM,4620 nM
"COCCNC(=O)N(Cc1ccc(F)cc1)c1ncc(C(=O)NCCCn2ccnc2)s1 [Example 82, 2-{(4-fluorobenzyl)[(2-methoxyethyl)carbamoyl]amino}-N-[3-(1H-imidazol-1-yl)propyl]-1,3-thiazole-5-carboxamide]",1.72 nM,7540 nM
"CC(C)CCN(C(=O)C(C)Oc1ccccc1)c1ncc(C(=O)NCCCn2ccnc2)s1 (stereo not shown) [Example 77, N-[3-(1H-imidazol-1-yl)propyl]-2-[(3-methylbutyl)(2-phenoxypropanoyl)amino]-1,3-thiazole-5-carboxamide]",0.774 nM,95.6 nM
"CC(C)CCN(C(=O)Cc1ccc(F)cc1)c1ncc(C(=O)NCCCn2ccnc2)s1 [Example 139, 2-{[(4-fluorophenyl)acetyl](3-methylbutyl)amino}-N-[3-(1H-imidazol-1-yl)propyl]-1,3-thiazole-5-carboxamide]",0.251 nM,56.1 nM
"CC(C)CCN(C(=O)[C@H](C)Oc1ccccc1)c1ncc(C(=O)NCCCn2ccnc2)s1 [Example 134, N-[3-(1H-imidazol-1-yl)propyl]-2-{(3-methylbutyl)[(2S)-2-phenoxypropanoyl]amino}-1,3-thiazole-5-carboxamide]",0.617 nM,200 nM
"COCCC(=O)N(CCc1ccccn1)c1ncc(C(=O)NCCCn2ccnc2)s1 [Example 101, N-[3-(1H-imidazol-1-yl)propyl]-2-{(3-methoxypropanoyl)[2-(pyridin-2-yl)ethyl]amino}-1,3-thiazole-5-carboxamide acetate (1:1)]",2.84 nM,5620 nM
"CC(C)CNC(=O)N(Cc1ccc(F)cc1)c1ncc(C(=O)NCCCn2ccnc2)s1 [Example 64, 2-{(4-fluorobenzyl)[(2-methylpropyl)carbamoyl]amino}-N-[3-(1H-imidazol-1-yl)propyl]-1,3-thiazole-5-carboxamide]",2.97 nM,1850 nM
